Results published in patent publication US10869844B2, “Methods for the treatment of depression” (Janssen Pharmaceutica NV, priority 2014, dated 2020).
Where two headings read alike, the source gives them in different places.

Columns and labels:
NMDA receptor = conditions: S-enantiomer compared with ketamine; cited from earlier work
[1] = test system: adult subjects with treatment resistant depression; format: in vivo, human; conditions: for Non-remitters % / Non-remitters No. / Remitters No. (MADRS total score 10) / Remitters % (MADRS total score 10): ketamine pooled 2x/week and 3x/week; for Duration of response, survival function estimate: Failure / Duration of response, survival function estimate: Survival: ketamine responders (Day 29), follow-up phase; for Response rates, Val/Val vs Met carriers: ketamine subjects
From the text: This was a double-blind, randomized, placebo-controlled, parallel arm study to assess the safety and efficacy of ketamine dosed 2 or 3 times weekly in adult subjects with treatment resistant depression. The study consisted of up to 4 phases: a screening phase of up to 4 weeks, a 4-week double-blind treatment phase (Day 1 to Day 29), an optional 2-week open label treatment phase, and a post treatment (follow up) phase of up to 3 weeks.
On Day 1 of the double-blind treatment phase, subjects were randomized to receive either i.v. infusions of placebo 2 times weekly or i.v. infusions of placebo 3 times weekly or i.v. infusions of ketamine 0.50 mg/kg, 2 times weekly or i.v. infusions of ketamine 0.50 mg/kg, 3 times weekly over 4 weeks.
Subjects who discontinued the double-blind treatment phase of the study due to lack of efficacy (based upon the clinical judgment of the investigator) after completion of the Day 15 visit, but prior to the Day 29 visit, may have received open-label ketamine treatment with the same dose frequency for an additional 2 weeks. After completing the Early Termination visit, the subject had study assessments as per the Time and Events Schedule for the optional open-label treatment phase followed by one follow up visit performed 1 week after the last dose of study medication.

Met/Met knocked in mice = conditions: LIU, Biol. Psychiatry 2012; cited from earlier work
[2] = Met carriers, DAY 03 or DAY 04, ketamine pooled 2x/wk and 3x/wk
[3] = Met carriers, DAY 08(DB), ketamine pooled 2x/wk and 3x/wk
[4] = Met carriers, DAY 15(DB), ketamine pooled 2x/wk and 3x/wk
[5] = Met carriers, DAY 29(DB), ketamine pooled 2x/wk and 3x/wk
[6] = Met carriers, Day 0 after Day 29
[7] = Met carriers, Day 10 after Day 29
[8] = Met carriers, Day 11 after Day 29
[9] = Val/Val, DAY 03 or DAY 04, ketamine pooled 2x/wk and 3x/wk
[10] = Val/Val, DAY 08(DB), ketamine pooled 2x/wk and 3x/wk
[11] = Val/Val, DAY 15(DB), ketamine pooled 2x/wk and 3x/wk
[12] = Val/Val, DAY 29(DB), ketamine pooled 2x/wk and 3x/wk

## CN[C@]1(c2ccccc2Cl)CCCCC1=O.Cl [Esketamine, (S)-2-(2-chlorophenyl)-2-(methylamino)cyclohexanone hydrochloride]
NMDA receptor
  Potency or affinity for the NMDA receptor: higher potency or affinity

## CNC1(c2ccccc2Cl)CCCCC1=O (racemic) [Ketamine, ketamine]
[1]; Met carrier group, at Day 39, from 7
  Subjects who remain well, number: 4
[1]; Met carriers (of 8)
  Day 29 responders who maintain response status during the follow-up phase, %: 62.5%
  Day 29 responders who maintain response status during the follow-up phase, number: 5
[1]; Met carriers, DAY 03 or DAY 04
  Non-remitters %: 100.0%
  Non-remitters No.: 13
  Remitters No. (MADRS total score 10): 0
[1]; [2]
  MADRS total score change from baseline, Mean: −6.85
  MADRS total score, Mean: 25.92
  Non-responders %: 92.3%
  Non-responders N: 12
  Responders % (MADRS total score reduction ≥50%): 7.7%
  Responders N (MADRS total score reduction ≥50%): 1
[1]; Met carriers, DAY 08(DB)
  Non-remitters %: 72.7%
  Non-remitters No.: 8
  Remitters % (MADRS total score 10): 27.3%
  Remitters No. (MADRS total score 10): 3
[1]; [3]
  MADRS total score change from baseline, Mean: −15.64
  MADRS total score, Mean: 17.00
  Non-responders %: 54.5%
  Non-responders N: 6
  Responders % (MADRS total score reduction ≥50%): 45.5%
  Responders N (MADRS total score reduction ≥50%): 5
[1]; Met carriers, DAY 15(DB)
  Non-remitters %: 54.5%
  Non-remitters No.: 6
  Remitters % (MADRS total score 10): 45.5%
  Remitters No. (MADRS total score 10): 5
[1]; [4]
  MADRS total score change from baseline, Mean: −17.45
  MADRS total score, Mean: 15.18
  Non-responders %: 45.5%
  Non-responders N: 5
  Responders % (MADRS total score reduction ≥50%): 54.5%
  Responders N (MADRS total score reduction ≥50%): 6
[1]; Met carriers, DAY 29(DB)
  Non-remitters %: 33.3%
  Non-remitters No.: 3
  Remitters % (MADRS total score 10): 66.7%
  Remitters No. (MADRS total score 10): 6
[1]; [5]
  MADRS total score change from baseline, Mean: −22.00
  MADRS total score, Mean: 10.78
  Non-responders %: 11.1%
  Non-responders N: 1
  Responders % (MADRS total score reduction ≥50%): 88.9%
  Responders N (MADRS total score reduction ≥50%): 8
[1]; [6]
  Duration of response, survival function estimate: Failure: 0
  Duration of response, survival function estimate: Survival: 1.0000
[1]; [7]
  Duration of response, survival function estimate: Failure: 0.2857
  Duration of response, survival function estimate: Survival: 0.7143
[1]; [8]
  Duration of response, survival function estimate: Failure: 0.4286
  Duration of response, survival function estimate: Survival: 0.5714
[1]; Val/Val (of 14)
  Day 29 responders who maintain response status during the follow-up phase, %: 64.3%
  Day 29 responders who maintain response status during the follow-up phase, number: 9
[1]; Val/Val and Met carriers together
  Ketamine responders on Day 29, number: 22
[1]; Val/Val, DAY 03 or DAY 04
  Non-remitters %: 95.2%
  Non-remitters No.: 20
  Remitters % (MADRS total score 10): 4.8%
  Remitters No. (MADRS total score 10): 1
[1]; [9]
  MADRS total score change from baseline, Mean: −12.67
  MADRS total score, Mean: 22.29
  Non-responders %: 71.4%
  Non-responders N: 15
  Responders % (MADRS total score reduction ≥50%): 28.6%
  Responders N (MADRS total score reduction ≥50%): 6
[1]; Val/Val, DAY 08(DB)
  Non-remitters %: 80.0%
  Non-remitters No.: 16
  Remitters % (MADRS total score 10): 20.0%
  Remitters No. (MADRS total score 10): 4
[1]; [10]
  MADRS total score change from baseline, Mean: −16.65
  MADRS total score, Mean: 18.50
  Non-responders %: 60.0%
  Non-responders N: 12
  Responders % (MADRS total score reduction ≥50%): 40.0%
  Responders N (MADRS total score reduction ≥50%): 8
[1]; Val/Val, DAY 15(DB)
  Non-remitters %: 77.8%
  Non-remitters No.: 14
  Remitters % (MADRS total score 10): 22.2%
  Remitters No. (MADRS total score 10): 4
[1]; [11]
  MADRS total score change from baseline, Mean: −18.50
  MADRS total score, Mean: 16.11
  Non-responders %: 33.3%
  Non-responders N: 6
  Responders % (MADRS total score reduction ≥50%): 66.7%
  Responders N (MADRS total score reduction ≥50%): 12
[1]; Val/Val, DAY 29(DB)
  Non-remitters %: 35.3%
  Non-remitters No.: 6
  Remitters % (MADRS total score 10): 64.7%
  Remitters No. (MADRS total score 10): 11
[1]; [12]
  MADRS total score change from baseline, Mean: −26.59
  MADRS total score, Mean: 9.59
  Non-responders %: 17.6%
  Non-responders N: 3
  Responders % (MADRS total score reduction ≥50%): 82.4%
  Responders N (MADRS total score reduction ≥50%): 14
[1]; Val/Val, Day 0 after Day 29
  Duration of response, survival function estimate: Failure: 0
  Duration of response, survival function estimate: Survival: 1.0000
[1]; Val/Val, Day 4 after Day 29
  Duration of response, survival function estimate: Failure: 0.1429
  Duration of response, survival function estimate: Survival: 0.8571
[1]; Val/Val, Day 16 after Day 29
  Duration of response, survival function estimate: Failure: 0.2208
  Duration of response, survival function estimate: Survival: 0.7792
[1]; Val/Val, Day 18 after Day 29
  Duration of response, survival function estimate: Failure: 0.3321
  Duration of response, survival function estimate: Survival: 0.6679
[1]; Val/Val, Day 38 after Day 29
  Duration of response, survival function estimate: Failure: 1.0000
  Duration of response, survival function estimate: Survival: 0
[1]; Val/Val, by Day 44, of 14
  Subjects who remain well, number: 12
[1]; ketamine pooled 2x/wk and 3x/wk, over time
  Reduction in MADRS total score, Val/Val vs Met carriers: Larger reductions in MADRS total score over most time points were observed in Val/Val carriers as compared to those Met carriers
[1]; Day 3 or Day 4 and Day 15
  Response rates, Val/Val vs Met carriers: response rates were higher on Day 3 or Day 4 and Day 15 in Val/Val subjects than in Met carriers
[1]; Days 8 and 29
  Response rates, Val/Val vs Met carriers: response rates were similar on Days 8 and 29
Met/Met knocked in mice
  Antidepressant-like response, Met/Met knocked in mice compared to Val/Val mice: blunted antidepressant-like response
  Synaptogenesis, Met/Met knocked in mice compared to Val/Val mice: reduced synaptogenesis
